From patent US11845763B2, “Tricarbonyl complexes of transition metals with benzo-heterocyclic derivatives of the cyclopentadienyl anion” (National Centre For Scientific Research “Demokritos”, priority 2018, dated 2023)
Like-named read-outs stand apart in the source and are kept apart here.

Experiments:
[1] = cited from earlier work
Aβ aggregates = details: literature value [45]; read-out: binding affinity to Aβ aggregates (Ki); cited from earlier work
[2] = Stability of 99mTc complexes under excess histidine or cysteine (HPLC); type: physicochemical; details: percentage of intact complex by HPLC, PBS pH 7.4, 37° C.; for Stability, Cysteine, 1 h / Stability, Cysteine, 3 h / Stability, Cysteine, 6 h: excess cysteine; for Stability, Histidine, 1 h / Stability, Histidine, 3 h / Stability, Histidine, 6 h: excess histidine
Method: The stability of ^99mTc-2-^99mTc-4 complexes was assessed in the presence of excess histidine and cysteine which are capable of acting as tridentate substituents replacing the ligands of the complexes. Each of the HPLC-purified ^99mTc complex (0.5 mL, approx. 10 MBq) was mixed with a solution of histidine or cysteine (2 mM) in 0.1 M PBS, pH 7.4 (0.5 mL). The mixture was incubated at 37° C. and analyzed by HPLC after 1, 3, and 6 h. The recording of the percentage of the intact complexes in the presence of the antagonists at each time point of the study allows the estimation of the stability of the labeled ^99mTc complexes.

[3] = Lipophilicity, partition coefficient n-octanol/PBS; type: physicochemical
Method: The lipophilicity of ^99mTc-2-^99mTc-4 complexes was determined by the estimation of the partition coefficient in a biphasic system of n-octanol and water (PBS). The partition coefficient was expressed as the logarithm of the ratio of the counts per gram from n-octanol versus those from PBS (log Poct/water), where P is the ratio. The measurement was done in triplicate and repeated three times.

[4] = Blood-brain barrier permeability by biodistribution studies in mice; type: in vivo, Swiss Albino mice; details: for Biodistribution of radioactivity, Blood / Biodistribution of radioactivity, Brain / Biodistribution of radioactivity, Heart / Biodistribution of radioactivity, Intestines / Biodistribution of radioactivity, Kidneys / Biodistribution of radioactivity, Liver / Biodistribution of radioactivity, Lungs / Biodistribution of radioactivity, Muscle / Biodistribution of radioactivity, Pancreas / Biodistribution of radioactivity, Spleen / Biodistribution of radioactivity, Stomach: tail vein injection, healthy Swiss Albino mice; for percentage of radioactivity in the brain: 2 min, Swiss Albino mice
Method: This evaluation was conducted through biodistribution studies in healthy Swiss Albino mice (5 weeks old, 20-30 g) that were obtained from the breeding facilities of the Institute of Biosciences & Applications, NCSR “Demokritos”. During these experiments we evaluate the distribution of radioactivity in the tissues of the animal after radiolabeled compound administration. For the credibility of the in vivo distribution data, three independent experiments are required for each evaluation, where in each experiment the animal population ranges between 9 and 12. The experiments of synthesis, labelling and biodistribution were carried out in the Laboratory of “Radiopharmaceuticals”, NCSR “Demokritos” that has the required infrastructure to ensure safe conduct of experiments using radioactivity. All the biodistribution studies were carried out in compliance with the Presidential Decree 56/2013 (published in the Official Government Gazette of Greece 106 A/30-4-2013) that has transposed the EU Directive 2010/63 on the protection of animals used for scientific purposes.
Three groups of mice (three animals per group) were injected in the tail vein with HPLC-purified ^99mTc complexes (1-2 μCi in 0.1 mL, ethanol/saline 1:9). The mice were sacrificed at various time points (2, 15, 90 min) post injection (p.i.). The organs of interest were excised, weighed, and the radioactivity counted in an automatic γ-counter. The stomach and intestines were not emptied of food contents prior to radioactivity measurements. The calculation for blood and muscle was based upon measured activity, sample weight, and body composition data, considering that blood comprises 7% and muscle 43% of body weight. The percentage of injected dose per organ (% ID/organ) was calculated by comparison of sample radioactivity to standard solutions that contained 10% of the injected dose. The percentage of injected dose per gram (% ID/g) was calculated by dividing the % ID/organ by the weight of the organ or tissue.
where cpm reference=(cpm 10% standard×10)−cpm tail.

[5] = biological target: Aβ42 fibrillar aggregates (Homo sapiens, UniProt P05067); assay: Competitive binding assay using Aβ42 fibrillar aggregates; details: homologous competition, Re complex vs corresponding 99mTc complex, 50 nM Aβ42 fibrillar aggregates, 3 h room temperature
Method: Competitive binding assay studies were performed in 1 mL solutions in PBS in 12 mm×75 mm borosilicate glass tubes according to a published procedure with modifications. […] The solutions were incubated for 3 h at room temperature and the bound and free radioactivity were separated by Millex-GV Syringe Filter Unit, 0.22 μm filters followed by 2×2 mL washes with PBS at room temperature. Filters containing the bound ^99mTc complexes were measured for radioactivity in a γ-counter. Binding studies were repeated in triplicate. The data were analyzed using GraphPad Prism software with the IC50 value calculated using a one-site competitive binding […] regression. The Ki value was calculated using the Cheng-Prousoff equation [44]: […]
In the case of homologous competitive binding we assume that the hot and cold ligand have identical affinities so that Kd and Ki have the same value. Thus the above equation is being transformed into: Ki=IC50−[Radioligand]

[6] = Brain uptake of literature 99mTc agents (cited); type: in vivo; details: 2 min post administration, converted from % ID/organ

Aβ42 fibrillar aggregates, sequence (P05067 672-713 limits assumed): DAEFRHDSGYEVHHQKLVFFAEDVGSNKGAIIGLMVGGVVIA

## C/C(=N\[O-])[C@@H](C)[N-]CC(C)(C)C[N-][C@H](C)/C(C)=N/O.[O]=[99Tc+3] (racemic) [^99mTc-HMPAO, 99mTc-hexamethylpropyleneamineoxime]
[1]; 60 min post administration [39]
  brain penetration: 5 % ID/gr

## CN(C)c1ccc(-c2cn3cc(I)ccc3n2)cc1 [[^123I]IMPY]
Aβ aggregates
  Ki: 12.5 ± 2.8 nM

## [99Tc+].[C-]#[O+].[C-]#[O+].[C-]#[O+].c1ccc2[nH]c(-[c-]3cccc3)nc2c1 [^99mTc-3]
[2]
  Stability, Cysteine, 1 h: 98 ± 1
  Stability, Cysteine, 3 h: 98 ± 1
  Stability, Cysteine, 6 h: 97 ± 2
  Stability, Histidine, 1 h: 98 ± 1
  Stability, Histidine, 3 h: 98 ± 1
  Stability, Histidine, 6 h: 97 ± 1
[3]
  Lipophilicity logPoct/water: 1.84 ± 0.17
[4]; 2 min p.i.
  Biodistribution of radioactivity, Blood: 3.38 ± 0.67 % ID/gr
  Biodistribution of radioactivity, Brain: 3.99 ± 0.60 % ID/gr
  Biodistribution of radioactivity, Heart: 7.53 ± 1.28 % ID/gr
  Biodistribution of radioactivity, Intestines: 3.06 ± 0.08 % ID/gr
  Biodistribution of radioactivity, Kidneys: 9.70 ± 0.92 % ID/gr
  Biodistribution of radioactivity, Liver: 13.97 ± 2.13 % ID/gr
  Biodistribution of radioactivity, Lungs: 7.09 ± 0.38 % ID/gr
  Biodistribution of radioactivity, Muscle: 5.23 ± 0.79 % ID/gr
  Biodistribution of radioactivity, Pancreas: 5.99 ± 0.62 % ID/gr
  Biodistribution of radioactivity, Spleen: 2.63 ± 0.40 % ID/gr
  Biodistribution of radioactivity, Stomach: 1.63 ± 0.44 % ID/gr
[4]; 15 min p.i.
  Biodistribution of radioactivity, Blood: 1.86 ± 0.13 % ID/gr
  Biodistribution of radioactivity, Brain: 0.75 ± 0.11 % ID/gr
  Biodistribution of radioactivity, Heart: 1.95 ± 0.26 % ID/gr
  Biodistribution of radioactivity, Intestines: 14.80 ± 0.25 % ID/gr
  Biodistribution of radioactivity, Kidneys: 5.04 ± 0.53 % ID/gr
  Biodistribution of radioactivity, Liver: 30.66 ± 3.96 % ID/gr
  Biodistribution of radioactivity, Lungs: 2.44 ± 0.39 % ID/gr
  Biodistribution of radioactivity, Muscle: 1.50 ± 0.19 % ID/gr
  Biodistribution of radioactivity, Pancreas: 1.96 ± 0.25 % ID/gr
  Biodistribution of radioactivity, Spleen: 1.01 ± 0.09 % ID/gr
  Biodistribution of radioactivity, Stomach: 3.17 ± 0.43 % ID/gr
[4]; 90 min p.i.
  Biodistribution of radioactivity, Blood: 0.48 ± 0.12 % ID/gr
  Biodistribution of radioactivity, Brain: 0.04 ± 0.01 % ID/gr
  Biodistribution of radioactivity, Heart: 0.22 ± 0.05 % ID/gr
  Biodistribution of radioactivity, Intestines: 23.94 ± 4.27 % ID/gr
  Biodistribution of radioactivity, Kidneys: 1.57 ± 0.20 % ID/gr
  Biodistribution of radioactivity, Liver: 18.08 ± 1.34 % ID/gr
  Biodistribution of radioactivity, Lungs: 0.45 ± 0.13 % ID/gr
  Biodistribution of radioactivity, Muscle: 0.15 ± 0.03 % ID/gr
  Biodistribution of radioactivity, Pancreas: 0.21 ± 0.02 % ID/gr
  Biodistribution of radioactivity, Spleen: 0.17 ± 0.03 % ID/gr
  Biodistribution of radioactivity, Stomach: 4.63 ± 0.56 % ID/gr
[4]
  percentage of radioactivity in the brain: 3.99±0.60 % ID/g
[5]
  Ki: 7.04 ± 2.85 nM

## Cn1c(-[c-]2cccc2)nc2ccccc21.[99Tc+].[C-]#[O+].[C-]#[O+].[C-]#[O+] [^99mTc-4]
[2]
  Stability, Cysteine, 1 h: 98 ± 1
  Stability, Cysteine, 3 h: 95 ± 2
  Stability, Cysteine, 6 h: 85 ± 1
  Stability, Histidine, 1 h: 98 ± 1
  Stability, Histidine, 3 h: 96 ± 1
  Stability, Histidine, 6 h: 95 ± 1
[3]
  Lipophilicity logPoct/water: 1.50 ± 0.12
[4]
  percentage of radioactivity in the brain: 6.14±1.00 % ID/g
[5]
  Ki: 5.74 ± 2.9 nM

## CCOC(=O)[C@H](C[S-])[N-]CCN[C@@H](C[S-])C(=O)OCC.[O-2].[Tc] [^99mTc-ECD, 99mTc-labelled ethylene dicysteine diethyl ester]
[6]
  brain penetration: approximately 4.4 % ID/gr
[1]; 2 min post administration [40]
  brain penetration: 1.32 % ID/organ
